Assay results taken from US8557823B2, “Family of PFKFB3 inhibitors with anti-neoplastic activities” (Advanced Cancer Therapeutics, LLC, priority 2007, dated 2013).

Experiments:
K562 leukemia cells = test: In vitro growth inhibition, K562; assay type: cell-based, human; conditions: Homo sapiens, 50% of vehicle control cell growth
Procedure: (§1) The K562, HL-60, MDA-MB231, and melanoma (CRL-11174) human cancer cell lines were purchased from ATCC (American Tissue Type Culture Collection, Manassas, Va., United States of America). HeLa, A549, Lewis Lung Carcinoma, MDA-MB231, and melanoma cells were grown in Dulbecco's Modified Eagle Medium (DMEM) (Hyclone, Logan, Utah, United States of America) supplemented with 10% fetal bovine serum (Hyclone, Logan, Utah, United States of America) and 50 μg/mL gentamicin sulfate (Invitrogen, Carlsbad, Calif., United States of America). The HL-60, K562, and Jurkat cell lines were grown in RPMI-1640 medium (Hyclone, Logan, Utah, United States of America) supplemented with 10% fetal bovine serum and 50 μg/mL gentamicin sulfate. […]
(§2) Cells were collected 48 hours post-treatment, and cell number and viability were determined by trypan blue exclusion. […]

[1] = system: HeLa cervical cancer cells; test: In vitro growth inhibition, HeLa; assay type: cell-based; conditions: Homo sapiens
Procedure: as §1, §2

[2] = system: PFKFB3 over-expressing Jurkat cells; test: Growth inhibition of Jurkat cells over-expressing PFKFB3 (Tet-ON, doxycycline); assay type: cell-based; conditions: Homo sapiens, 48 hours
Procedure: FIG. 6D is a bar graph showing the anti-proliferative effects of 3PO in Jurkat cells engineered to over-express PFKFB3 through doxycylin treatment utilizing the Tet-on system (+PFKFB3, striped bars). Twenty-four hours prior to 3PO treatment, 1 μg/mL of doxycyclin is incubated with Jurkat cells containing a PFKFB3-expressing vector in order to induce PFKFB3 protein levels. Control cells (−PFKFB3, solid bars) containing an empty vector were similarly treated with doxycyclin and served as background PFKFB3 expression. Both cell types were subsequently incubated with increasing concentrations of 3PO (1, 3, 10, or 33 μM) or vehicle (V), and viable cells were analyzed after 48 hours. The bars represent the mean±STD of triplicate values from a representative experiment.
FLAG-PFKFB3 containing the complete PFKFB3 coding sequence and FLAG-epitope at its N-terminus was subcloned into the BamHI/HindIII restriction sites within the retroviral Tet response vector pRevTRE (Clontech, Mountain View, Calif., United States of America). Recombinant retrovirus was produced by Lipofectamine-mediated (Invitrogen, Carlsbad, Calif., United States of America) transfection of the pRevTRE-FLAG-PFKFB3 construct into PT67 packaging cell lines. […]
as §2

[3] = system: Lewis Lung Carcinoma xenografts; test: F2,6BP in Lewis lung carcinoma tumor xenografts; assay type: in vivo, mice; conditions: 0.07 mg/g i.p., four hours post-injection
Procedure: C57Bl/6 female mice (20 g) were injected subcutaneously with 1×10^6 Lewis lung carcinoma cells. When the xenografts were measured to have a mass of between 150 and 180 mg, the mice were split into two groups. One group was injected i.p. with 0.07 mg/g of compound 1. The other group was used as a control and injected i.p. with 50 μL DMSO. Four hours post-injection, tumors were removed and homogenized in equal volumes of 0.1 M and 0.05 M NaOH. F2,6BP assays were performed as previously described. See Van Shaftingen et al., Eur. J. Biochem, 129, 191-195 (1982). […] F2,6BP concentration in the compound 1-treated mouse xenografts was 8.5±1.7 pmol/mg, while in the control mouse xenografts' F2,6BP concentration was 13.1±1.9 pmol/mg.

**Q.** Which IC50 (K562 leukemia cells) does the source give for `O=C(/C=C/c1cccnc1)c1ccncc1` [Compound 1, 3-(3-pyridinyl)-1-(4-pyridinyl)-2-propen-1-one] here?
**A.** The IC50 was 3.2 µM.

**Q.** What about the IC50 [1] of the same molecule?
**A.** The IC50 was 24 µM.

**Q.** What about the IC50 [2] of the same molecule?
**A.** The IC50 was 19.3 µM.

**Q.** What about the “F2,6BP concentration in tumor xenografts” value [3] of the same molecule?
**A.** The value was 8.5 ± 1.7 pmol/mg.
